Legend:
[1] = test system: LLC tumor (highly metastatic strain); test: DNase I influence on life span of mice transplanted with LLC tumor, highly metastatic strain (Example 16); type: in vivo, C57B1 mice; conditions: for Tumor's growth at the last day of DNase treatment: DNase 1 mg/kg two times a day, growth renewed after withdrawal; for 30 day (number of alive\number of dead in group) / 50 day (number of alive\number of dead in group): DNase 1 mg/kg intraperitoneally two times a day
Method: Five groups of LLC transplanted mice participated in the experiment.
Group 1—7 mice (control).
Group 2—6 mice were treated with intraperitoneal administration of DNase at 1 mg/kg dose two times a day starting from 3 up to 7 day after tumor transplantation.
Group 3—6 mice were treated with intraperitoneal administration of DNase at 1 mg/kg dose two times a day starting from 3 up to 10 day after tumor transplantation.
Group 4—6 mice were treated with intraperitoneal administration of DNase at 1 mg/kg dose two times a day starting from 3 up to 15 day after tumor transplantation.
Group 5—6 mice were treated with intraperitoneal administration of DNase at 1 mg/kg dose two times a day starting from 3 up to 18 day after tumor transplantation.
Results of experiment were estimated according to animals' survival on the 30 and 50 day after tumor transplantation.

[2] = test system: Staphylococcus aureus VT-2003R; test: DNase use for treatment of the experimental sepsis (Example 5); type: in vivo; conditions: mice, DNase 500 mkg/kg intraperitoneally four times a day, 1-3 days after infection
Excerpt: White not thoroughbred mice were used for experiment. Animals' weight was 24-26 grams. Pathogenic strain of Staphylococcus aureus VT-2003R at 1×10^10 bacteria/animal dose was inoculated to retroorbital sinus of animals. DNase was intraperitoneally administered. Isotonic solution of sodium chloride or Penicillin was administrated to control groups. Each experimental group contained 10 mice. Intraperitoneal administration of compound (DNAase) four times a day at 500 mkg/kg dose continued for 1-3 days after infection. Penicillin was intramusculary administrated. Efficiency of action was estimated by number of animals that stayed alive after the death of the last one in control group. All animals have died to the third day of the experiment in control group. Six animals stayed alive to the third day of the experiment in the group that administrated DNase. Protection was […]. Received data specify an opportunity and efficiency of DNase use for infections' treatment.

[3] = test system: Erlich carcinoma; test: Inhibition of Erlich tumor growth by different schemes of DNase administration (Example 2); type: in vivo, mice; conditions: day 3 to 7, 7 day after transplantation
Method: Bovine pancreatic DNase I (Fermentas) and human recombinant DNase I (Dornase; Gentech) were used. DNase I solution for injections were prepared by dissolving of DNase matrix solution in sterile phosphate buffer directly before administration. Cyclophosphamide and Doxorubicin were dissolved according to instruction.
Blood plasma DNA of tumor-bearing mice was received according to technique described above. Highly metastatic and low metastatic stains of mice' Luice lung carcinoma and Erlich carcinoma were used. Cells were cultivated in RPMI-1640 media with adding of 10% embryonic calf serum, 1% penicillin—streptomycin in 5% carbon dioxide atmosphere. For tumor induction in mice, cells were cultivated until the monolayer, than were detached with trypsin-EDTA solution. Cells were washed trice by centrifuging in phosphate buffer and were resuspensed until their concentration have become 0.5×10^7/ml. Viability was defined by inclusion of methylene blue in hemocytometer. Suspensions that contained 95% of viable cells were used for administration to animals.
Mice of C57B1 line and white not thoroughbred mice from “Rappolovo” animal house were used. Weight of animals was 24-26 grams. Animals were contained in cages, for 6-7 mice per one cage on a standard diet without water restriction. LLC cells in dose of 5×10^5 in 100 mkl of phosphate buffer were injected in soft tissues of thigh. Erlich tumor was subcutaneously replanted on the right side by injection of 0.2 ml 10% cells' suspension in isotonic sodium chloride solution.
In our experiments DNA circulating in blood plasma of patients was the therapeutic target of DNase. Prolonged presence of DNase in blood plasma at catalytically effective concentrations is essential for provision of maximal therapeutic effect.
Group 1—10 mice transplanted with Erlich carcinoma (control).
Group 2—10 mice transplanted with Erlich carcinoma. Mice were intraperitoneally injected with DNase at 1 mg/kg dose in […] of phosphate buffer twice a day starting from 3 up to 7 day after tumor transplantation.
Group 3—10 mice transplanted with Erlich carcinoma. Mice were intraperitoneally injected with DNase at 0.5 mg/kg dose in […] of phosphate buffer four times a day starting from 3 up to 7 day after tumor transplantation.

[4] = test system: metastases development; conditions: systemic introduction; Sugihara S. et al. (1990, 1993); cited from earlier work
[5] = test system: Erlich carcinoma; test: Combined use of DNase and Doxorubicin, Erlich tumor growth (Example 3); type: in vivo, mice; conditions: Doxorubicin 2 mg/kg intravenously once a day and/or DNase 0.5 mg/kg intraperitoneally four times a day, day 3 to 7; 7th day after transplantation
Method: Bovine pancreatic DNase I (Fermentas) and human recombinant DNase […]) were used. DNase I solution for injections were prepared by dissolving of DNase matrix solution in sterile phosphate buffer directly before administration. […] Blood plasma DNA of tumor-bearing mice was received according to technique described above. Highly metastatic and low metastatic stains of mice' Luice lung carcinoma and Erlich carcinoma were used. […] For tumor induction in mice, cells were cultivated until the monolayer, than were detached with trypsin-EDTA solution. Cells were washed trice by centrifuging in phosphate buffer and were resuspensed until their concentration have become 0.5×10^7/ml. Viability was defined by inclusion of methylene blue in hemocytometer. […] Mice of C57B1 line and white not thoroughbred mice from “Rappolovo” animal house were used. Weight of animals was 24-26 grams. Animals were contained in cages, for 6-7 mice per one cage on a standard diet without water restriction. LLC cells in dose of 5×10^5 in 100 mkl of phosphate buffer were injected in soft tissues of thigh. […] Group 1-10 mice transplanted with Erlich carcinoma (control). Group 2-10 mice replanted with Erlich carcinoma. […] Group 3-10 mice replanted with Erlich carcinoma. […] Group 4-10 mice replanted with Erlich carcinoma. […] Results of experiments were estimated according to tumor's growth inhibition (TGI) that were expressed in percents to control data received at last day of DNase injection with standard formula using.

[6] = DNase 0.5 mg/kg intraperitoneally four times a day
[7] = DNase 1 mg/kg intraperitoneally twice a day

For DNase, the “Tumor's growth at the last day of DNase treatment” value ([1]; 2nd group, day 3 to 7) was “significant inhibition of tumor's growth”, the “Tumor's growth at the last day of DNase treatment” value ([1]; 3rd group, day 3 to 10) was “significant inhibition of tumor's growth” and the “30 day (number of alive\number of dead in group)” value ([1]; day 3 to 7) was 0-6. The “50 day (number of alive\number of dead in group)” value (“50 day” below) ([1]; day 3 to 7) was 0-6, the “30 day (number of alive\number of dead in group)” value ([1]; day 3 to 10) was 3-6 and the “50 day” value ([1]; day 3 to 10) was 0-6. The “50 day” value ([1]; day 3 to 15) was 3-3, the “Inhibition of tumor growth at day 18” value ([1]; DNase 1 mg/kg two times a day from 3rd up to 18th day) was “more than 95%” and the “Number of animals that stayed alive to the third day” value ([2]; 10 per group) was “Six”. For the same substance, the Protection [2] was 67%, the “T% (tumor's growth inhibition)” value [3, 6] was 76% and the “Tumor's volume” value [3, 6] was 23 +/− 6. The “T% (tumor's growth inhibition)” value [3, 7] was 67%, the “Tumor's volume” value [3, 7] was 32 +/− 6 and the Metastases development [4] was “could slow metastases development”. For the same substance, the “T% (tumor's growth inhibition)” value [5] was 78% and the “Tumor's volume” value [5] was 20 +/− 6.

Reference: patent US20080004561A1, “Method for Treating Oncological, Virulent and Somatic Diseases, Method for Controlling Treatment Efficiency, Pharmaceutical Agents and Composition for Carrying Out Said Treatment” (priority 2005, published 2008)
